From patent US20260226084A1, “DUAL RAF AND TUBULIN INHIBITORS AND METHODS OF USE THEREOF” (Deciphera Pharmaceuticals, LLC, priority 2023, published 2026)
Like-named read-outs stand apart in the source and are kept apart here.

Experiments:
HCT-116 cells = assay: HCT-116 Cell Proliferation Assay; assay type: cell-based; settings: Homo sapiens
Summary of the method: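 HCT-116 cells, 375/well in McCoy's 5A with 10% FBS, exposed to serial compound dilutions in triplicate for 67 to 72 hours at 37 °C. Viability read by resazurin fluorescence (ex 540/em 600 nm) after a further 4 to 5 h; IC50 values calculated.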

[1] = target: T1, C-Raf kinase (SEQ ID NO: 2) (Homo sapiens, UniProt P04049, Y340D/Y341D); assay: Biochemical Assay for C-Raf (coupled pyruvate kinase/lactate dehydrogenase assay)
T1 construct: C-Raf residues 306-end; Y340D, Y341D with; GST (N); purchased Sigma

Pa16c cells = assay: Pa16c Cell Proliferation Assay; assay type: cell-based; settings: Table 2, read-out: Inhibition of cell proliferation in Pa16c (IC50 class)
Summary of the method: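 Mouse Pa16c cells, 750/well in DMEM with 10% FBS, exposed to serially diluted compound in triplicate for 67 to 72 h at 37° C. Viability read by resazurin reduction over a further 18 to 24 h (ex 540/em 600 nm). IC50 calculated from the dose-response.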

[2] = target: T2, B-Raf kinase (SEQ ID NO: 1) (Homo sapiens, UniProt P15056); assay: Biochemical Assay for B-Raf (coupled pyruvate kinase/lactate dehydrogenase assay)
T2 construct: GST (N); purchased Sigma

Porcine Brain Tubulin = target: T3, Porcine Brain Tubulin (Sus scrofa, UniProt P02550+P02554); assay: Biochemical Tubulin Polymerization Assay; settings: Table 3; Tubulin Biochemical assay; read-out: Tubulin Biochem (IC50 class)
T3 construct: Porcine Brain Tubulin (T240); purchased Cytoskeleton, Inc T240; BK011P; host or cells: porcine brain (tissue-purified)

[3] = tested on: tubulin polymerization in HCT-116 cells; assay: Cellular Tubulin Polymerization Assay; assay type: cell-based; settings: Homo sapiens, Table 3, read-out: Tubulin Cellular (IC50 class)
Experimental: HCT-116 cells (catalog #CCL-247) are obtained from the American Type Culture Collect (ATCC, Manassas, VA). Briefly, cells are grown in McCoy's 5A supplemented with 10% characterized fetal bovine serum (Invitrogen, Carlsbad, CA) and 1% Penicillin/Streptomycin/L-Glutamine at 37° C., 5% CO2, and 95% humidity. Cells are expanded until reaching 70-95% confluency at which point they are subcultured or harvested for assay use. 450000 cells are added per well in 1500 μL complete growth medium in a tissue culture treated, 12-well plate. Plates are incubated for 18 to 24 h at 37° C., 5% CO2, and 95% humidity. At the end of the incubation, 2000 μL of base culture media is added to each well, followed by a serial dilution of compound. Plates are incubated for an additional 1 h at 37° C., 5% CO2, and 95% humidity. Lysates are generated by the addition of 100 μL Lysis and Microtubule Stabilization Buffer 1 (LMS01, Cytoskeleton Inc, Denver, CO) supplemented with GTP (BST06, Cytoskeleton Inc), ATP (BSA04, Cytoskeleton Inc), and Protease Inhibitor Cocktail Stock (PIC02, Cytoskeleton Inc). Cells are scraped off wells using a rubber cell scraper and collected in a clean 96-well plate. Lysates are centrifuged at 1000×g, 37° C. for 10 min and supernatant fraction is placed into an additional 96-well plate. The remaining pellet fraction is reconstituted in 100 μL LMS01 buffer and sonicated for 10 min. Pellet and Supernatant fractions are probed for α-tubulin via western blot analysis on the Jess System or equivalent (Bio-techne, Minneapolis, MN). Data is analyzed using Prism software (Graphpad, San Diego, CA) to calculate IC50values.

[4] = HCT-116, HCT-116 cells, Table 2, read-out: Inhibition of cell proliferation in HCT-116 (IC50 class)
[5] = HCT-116, Table 3, read-out: HCT-116 (IC50 class)
[6] = 1 mM ATP, read-out: CRAF (inhibition of biochemical activity, IC50)
[7] = Table 3, read-out: CRAF (IC50 class)
[8] = 1 mM ATP, read-out: BRAF (inhibition of biochemical activity, IC50)
[9] = Table 3, read-out: BRAF (IC50 class)

T1 sequence (P04049 307-648 Y340D/Y341D): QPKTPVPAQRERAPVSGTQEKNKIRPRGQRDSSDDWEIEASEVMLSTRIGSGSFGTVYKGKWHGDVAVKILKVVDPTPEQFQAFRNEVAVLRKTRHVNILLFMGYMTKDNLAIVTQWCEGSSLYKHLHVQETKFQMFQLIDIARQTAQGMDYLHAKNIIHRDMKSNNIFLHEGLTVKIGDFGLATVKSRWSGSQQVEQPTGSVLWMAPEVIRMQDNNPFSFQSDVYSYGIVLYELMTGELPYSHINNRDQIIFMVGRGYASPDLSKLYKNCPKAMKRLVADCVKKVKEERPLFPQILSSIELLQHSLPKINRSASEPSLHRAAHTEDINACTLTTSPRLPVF
T3 sequence (P02550 whole entry): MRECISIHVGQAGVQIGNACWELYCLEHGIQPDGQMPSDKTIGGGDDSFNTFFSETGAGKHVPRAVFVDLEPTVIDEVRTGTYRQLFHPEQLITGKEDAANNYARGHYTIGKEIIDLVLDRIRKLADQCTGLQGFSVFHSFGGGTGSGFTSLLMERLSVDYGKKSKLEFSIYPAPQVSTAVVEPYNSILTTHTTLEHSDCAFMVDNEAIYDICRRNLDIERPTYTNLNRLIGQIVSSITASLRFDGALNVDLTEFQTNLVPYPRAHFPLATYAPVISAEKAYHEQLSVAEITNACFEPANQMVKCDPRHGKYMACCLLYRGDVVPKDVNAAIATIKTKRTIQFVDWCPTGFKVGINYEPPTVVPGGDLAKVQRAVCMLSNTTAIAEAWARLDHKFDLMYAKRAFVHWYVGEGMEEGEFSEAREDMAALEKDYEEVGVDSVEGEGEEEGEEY
T3 sequence (P02554 whole entry): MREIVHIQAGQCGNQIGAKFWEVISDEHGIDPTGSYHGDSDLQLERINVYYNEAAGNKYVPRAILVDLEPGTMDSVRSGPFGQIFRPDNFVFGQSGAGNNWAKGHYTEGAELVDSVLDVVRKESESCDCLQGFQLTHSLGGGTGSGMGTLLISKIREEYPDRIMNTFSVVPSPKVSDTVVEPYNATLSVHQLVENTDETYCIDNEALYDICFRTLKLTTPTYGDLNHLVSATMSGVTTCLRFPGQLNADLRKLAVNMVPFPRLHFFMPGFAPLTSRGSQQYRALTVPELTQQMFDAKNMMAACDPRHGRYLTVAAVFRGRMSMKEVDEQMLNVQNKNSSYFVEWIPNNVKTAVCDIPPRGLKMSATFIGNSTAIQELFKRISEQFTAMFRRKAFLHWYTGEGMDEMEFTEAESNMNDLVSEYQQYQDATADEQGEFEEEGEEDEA
T2 sequence (P15056 416-766): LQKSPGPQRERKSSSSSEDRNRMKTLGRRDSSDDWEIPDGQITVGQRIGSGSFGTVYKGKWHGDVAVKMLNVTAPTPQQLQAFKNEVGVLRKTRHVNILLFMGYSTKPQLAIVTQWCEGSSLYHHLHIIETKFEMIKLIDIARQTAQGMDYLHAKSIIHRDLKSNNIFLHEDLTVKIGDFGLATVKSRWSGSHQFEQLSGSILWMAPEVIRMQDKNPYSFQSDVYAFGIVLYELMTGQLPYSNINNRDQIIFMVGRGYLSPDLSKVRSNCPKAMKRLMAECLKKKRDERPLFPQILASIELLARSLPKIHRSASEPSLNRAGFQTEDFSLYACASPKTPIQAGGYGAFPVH

Structure (SMILES) | IC50 (HCT-116 cells; [4]) | IC50 (HCT-116 cells; [5]) | IC50 [1, 6] | IC50 [1, 7] | IC50 (Pa16c cells) | IC50 [2, 8] | IC50 [2, 9] | IC50 (Porcine Brain Tubulin) | IC50 [3]
Cc1ccc(NC(=O)c2cc(C#N)cnn2)cc1-c1ccnc(-c2ccnc(NC(=O)C3CC3)c2)c1 [Example 96, 5-cyano-N-(3-(2′-(cyclopropanecarboxamido)-[2,4′-bipyridin]-4-yl)-4-methylphenyl)pyridazine-3-carboxamide] | 100 to 500 nM | 100 to 500 nM | < 100 nM | < 100 nM | 1000 to 10000 nM | < 100 nM | < 100 nM | 3000 to 20000 nM | < 100 nM
Cc1ccc(NC(=O)c2cc(C(F)(F)F)cnn2)cc1-c1ccnc(-c2ccnc(NC(=O)C3CC3)c2)c1 [Example 67] | < 100 nM | < 100 nM | < 100 nM | < 100 nM | < 100 nM | < 100 nM | < 100 nM | < 3000 nM | < 100 nM
Cc1ccc(NC(=O)c2cnc(C(F)(F)F)nc2)cc1-c1ccnc(-c2ccnc(NC(=O)C3CC3)c2)c1 [Example 17] | 100 to 500 nM | 100 to 500 nM | < 100 nM | < 100 nM | < 100 nM | 100 to 500 nM | 100 to 500 nM | 3000 to 20000 nM | 500 to 1000 nM
Cc1ccc(NC(=O)c2cc(C(C)(F)F)cnn2)cc1-c1ccnc(-c2ccnc(NC(=O)C3CC3)c2)c1 [Example 57] | < 100 nM | < 100 nM | < 100 nM | < 100 nM | 100 to 500 nM | < 100 nM | < 100 nM | < 3000 nM | 1000 to 10000 nM
Cc1ccc(NC(=O)c2cc(C3CC3)cnn2)cc1-c1ccnc(-c2ccnc(NC(=O)C3CC3)c2)c1 [Example 43] | < 100 nM | < 100 nM | < 100 nM | < 100 nM | < 100 nM | < 100 nM | < 100 nM | 3000 to 20000 nM | < 100 nM
